For this assay, the system named is MDA-MB-468 breast. Briefly: inhibition of tumour cell growth, NCI panel, 48 h.

SMILES strings stand for the structures. Where “and” joins values, the source holds several entries; their conditions need not be identical. Equal values may be shown once.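 Five concentrations, 48 hours, 96-well plates. At the GI50, growth is halved. TGI denotes the concentration required for complete inhibition of growth.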 Where a SMILES comes first, the peptide text is derived from it. [ ]: non-standard residue; d: D form. Orn = NCCC[CH](N)C(=O)O

Regarding `O=C(Nc1cccc2ccccc12)c1cc2ccccc2cc1O`, the GI50 is 2450 nM and the TGI came to 6330 nM. The matching figures for `COc1cccc(-c2cc(NCc3ccc4c(c3)OCO4)nc(N)n2)c1`: 220 nM and 15100 nM. The matching figures for `COc1ccc2c(c1)N(CCO)C1=C(C(=O)OC1)C2c1cccc(Br)c1` (configuration not stated): 28.7 nM and 128 nM.

As to `CCN1CCN(Cc2ccc3cc(C(=O)Nc4cc(NC(=O)c5ccc6c(c5)OCCO6)ccc4F)ccc3n2)CC1`, the GI50 is 33.5 nM and the TGI amounted to 181 nM.

In the case of `CCN(CC)CCCC(C)Nc1ccnc2cc(Cl)c(SCc3ccccc3)cc12` (configuration not stated), the GI50 was 1230 nM and the TGI was determined as 2570 nM. The matching figures for `CN(C)CCOc1cccc(NC2=C(Cl)C(=O)C(Nc3cccc(OCCN(C)C)c3)=C(Cl)C2=O)c1`: 181 nM and 358 nM. The matching figures for `Cc1cc(Cl)ccc1Nc1nc(C(F)(F)F)ccc1C(=O)N/N=C/c1c(Cl)cccc1Cl`: 274 nM and 842 nM. The matching figures for `CCNCCNc1cc(C2CCCC2)c(C#N)c2nc3ccccc3n12`: 1640 nM and 3670 nM. For the compound `C#Cc1ccc(-n2c(/C=C/c3ccc4ccccc4n3)nc3ncccc3c2=O)cc1`, the GI50 was 232 nM and the TGI was 894 nM.

For the compound `COc1ccc2oc(-c3ccc(Cl)cc3)c(N3CCN(C)CC3)c2c1`, the GI50 was 1660 nM and the TGI is 4310 nM.

Consider `CCOCC[P+](c1ccccc1)(c1ccccc1)c1ccccc1`, for which the GI50 was 2620 nM and the TGI worked out at 24900 nM. The matching figures for `COC(=O)c1cccc(NC2=C(Cl)C(=O)c3nc(C)ccc3C2=O)c1`: 1610 nM and 3280 nM. The matching figures for `Cn1cc(C2=C(c3cccc(NCC(O)CO)c3)C(=O)NC2=O)c2cc(Cl)ccc21` (configuration not stated): 2110 nM and 8430 nM. The matching figures for `C#Cc1cc(OC)c(C(=O)Nc2ccc(F)cc2C(=O)Nc2cccc(S(=O)(=O)C(F)(F)F)c2)cn1`: 1510 nM and 3990 nM. Take `CCOC(=O)c1c2c(n3cccc(F)c13)C(=O)c1ncccc1C2=O`: the GI50 is 2870 nM and the TGI amounted to 9680 nM.

As for `C#CCOc1c(OC)cc(C(=O)/C(C)=C/c2cccc(N=[N+]=[N-])c2)cc1OC`, the GI50 is 85.5 nM and the TGI is above 100000 nM. The matching figures for `Cc1cc(Cl)ccc1Nc1nc(C(F)(F)F)ccc1C(=O)N/N=C/c1ccc(F)cc1`: 706 nM and 3260 nM.

For `O=CNc1ccc2c(c1)Cc1cc([N+](=O)[O-])ccc1-2`, the GI50 was 1880 nM and the TGI is above 100000 nM. The matching figures for `COc1ccc(/C=C/C(=O)c2ccc(NC(=O)CSc3nnc(-c4cc(OC)c(OC)c(OC)c4)o3)cc2)cc1`: 2100 nM and 5020 nM. In the case of `O=C(Nc1ncc(Cc2ccc(Cl)cc2)s1)c1ccc2c(c1)OCCO2`, the GI50 was 258 nM. As to `COc1ccc(-c2oncc2-c2cc(OC)c3c(c2)OCO3)cc1`, the GI50 is 1350 nM and the TGI was above 29700 nM. Turning to `O=C(O)c1cn(C2CC2)c2cc(N3CCN(C(=O)Nc4nc(-c5ccc(Cl)cc5)cs4)CC3)c(F)cc2c1=O`, the GI50 was 1750 nM and the TGI is 8150 nM. The matching figures for `CCCNNC(=O)c1ccc(CNC(=O)/C=C/c2ccccc2)cc1`: 311 nM and above 31100 nM. The matching figures for `COC(C(=O)[C@@H](O)[C@@H](C)O)[C@@H]1Cc2cc3cc(O[C@H]4C[C@@H](O[C@H]5C[C@@H](O)[C@H](O)C(C)O5)[C@H](O)C(C)O4)c(C)c(O)c3c(O)c2C(=O)[C@H]1O[C@H]1C[C@@H](O[C@H]2C[C@@H](O[C@H]3C[C@@H](O)[C@@H](O)C(C)O3)[C@@H](O)C(C)O2)[C@H](O)C(C)O1` (some centres not stated): 396 nM and 4090 nM. With `N=c1c2c(=O)n3c(nc2nc2sc4ccc(Cl)cc4n12)-c1ccccc1Sc1ccccc1-3`, the GI50 is 2670 nM and the TGI amounted to 12400 nM.

Consider `CC(=O)/C=C/c1ccc(N(C)Cc2ccc(C(C)(C)C)cc2)cc1`, for which the GI50 was 59700 nM and the TGI turned out to be 215000 nM. The matching figures for `O=C(Nc1cccc(-n2cc(-c3ccncc3)c(-c3ccc(O)c(Cl)c3)n2)c1)Nc1ccc(Cl)c(C(F)(F)F)c1`: 2190 nM and 6840 nM. Turning to `CCOC(=O)C1=C(N)Oc2cc(OC)ccc2C1c1ccc(F)c(F)c1` (configuration not stated), the GI50 was 352 nM and the TGI was 4000 nM. The matching figures for `Cc1cccc2c(=O)c3c(sc12)c(NCCN)nc1ccccc13`: 700 nM and 1580 nM. The matching figures for `O=C1C=CC(=O)N1CCCCCCCCCCN1C(=O)C=CC1=O`: 3220 nM and 14000 nM. The matching figures for `CCC1=C[C@H]2CN(CCc3c([nH]c4ccccc34)[C@@](C(=O)OC)(c3cc4c(cc3OC)N(C)[C@H]3[C@@](O)(C(=O)OC)[C@H](OC(C)=O)[C@]5(CC)[C@@H]6C[C@@H]6CN6CC[C@]43[C@@H]65)C2)C1`: 14.5 nM and 6590 nM. On to `COc1ccc(/C=C2\CCCC3=C2N=C2SC=NN2C3c2ccc(OC)c(OC)c2)cc1OC` (configuration not stated), for which the GI50 is 2180 nM and the TGI stood at 25300 nM. The matching figures for `Cc1ccc(C2CC(c3cccc(Nc4ccncc4)c3)=NN2c2ccc(Cl)cc2)cc1` (configuration not stated): 1670 nM and 3250 nM.

In the case of `CCN1C(=O)N(CC)C2C1NN=C1SC(c3ccccc3)=CC(=O)N12` (configuration not stated), the GI50 is 231 nM and the TGI was 867 nM. The matching figures for `Cc1ccc(S(=O)(=O)N2C/C(=C\c3cc(F)cc(F)c3)C(=O)/C(=C/c3cc(F)cc(F)c3)C2)cc1`: 385 nM and 1760 nM. The matching figures for `N=C(N)c1ccc(-c2ccc(-c3ccco3)o2)cc1F`: 1570 nM and 3410 nM. The matching figures for `Fc1ccc(-c2cc3nc(C(Cl)Cl)nc(-c4ccccc4)n3n2)cc1`: 269 nM and 869 nM. Take `Clc1cccc(Cc2cn3cc(-c4ccccc4)nc3s2)c1`: the GI50 is 4450 nM and the TGI is above 100000 nM. The matching figures for `NNc1nc(-c2ccccn2)nc2sc3c(c12)CCCCCC3`: 3670 nM and 31700 nM.

On to `CC(C)CC1NC(=O)C(CCCN)NC(=O)C(C(C)C)NC(=O)C2CCCN2C(=O)C(Cc2ccccc2)NC(=O)C(CC(C)C)NC(=O)C(CCCN)NC(=O)C(C(C)C)NC(=O)C2CCCN2C(=O)C(Cc2ccccc2)NC1=O` (configuration not stated) (cyclo(FPV[Orn]LFPV[Orn]L); configuration not given here), for which the GI50 is 3.94 nM; the TGI was 22.2 nM and 26.8 nM. For the compound `COc1cc([C@@H]2c3cc4c(cc3[C@H](O)[C@H]3COC(=O)[C@@H]23)OCO4)cc(OC)c1OC`, the GI50 is 278 nM and 54.8 nM; the TGI was 2870 nM and 453 nM.

Take `COc1cc(C2c3cc4c(cc3OC(O)C2C)OCO4)cc(OC)c1O` (configuration not stated): the GI50 was 10600 nM and the TGI was above 100000 nM. The matching figures for `N=C1N=Nc2nc(C3(c4nc5n(c4O)C(=N)N=N5)Cc4ccccc4C3=O)c(O)n21` (configuration not stated): 49800 nM and above 100000 nM. The matching figures for `Cc1ccc(S(=O)(=O)C2=C3C(=C(c4ccccc4)c4ccccc43)CN(S(=O)(=O)c3ccc(C)cc3)C2)cc1`: 5010 nM and 40600 nM.
